Experimental findings from US11286274B2, “Nicotinamide riboside derivatives and their uses” (MitoPower LLC, priority 2017, dated 2022) are described below.

Where a name gives a salt, the structure may show the parent alone.

One test relates to Jurkat cells. The test can be described thus: Total cellular NAD+ level after MNNG-induced depletion (NAD/NADH Glo Assay), Jurkat cells. The format is cell-based. Conditions: for increase of NAD+ level: Jurkat cells, 100 μM MNNG 30 min; for % NAD+ Repletion: Jurkat, MNNG 100 μM, compound 1 mM.
The next test relates to HEPG2 cells. The test can be described thus: Total cellular NAD+ level after MNNG-induced depletion (NAD/NADH Glo Assay), HEPG2 cells. It counts as cell-based. The note with it: HEPG2, MNNG 100 μM, compound 1 mM.

On to `NC(=O)c1ccc[n+]([C@@H]2O[C@H](CO)[C@@H](O)[C@H]2O)c1` [NR, nicotinamide riboside], for which, in the test with Jurkat cells (then NR 100 μM without olaparib for 3.5 hr), the “increase of NAD+ level” value turned out to be 43%.

Take `NC(=O)c1ccc[n+]([C@@H]2O[C@H](COC(=O)CCC(=O)O)[C@@H](O)[C@H]2O)c1` [MP-42, 3-Carboxamide-1-((2R,3R,4S,5R)-5-(((3-carboxypropanoyl)oxy)methyl)-3,4-dihydroxytetrahydrofuran-2-yl)pyridin-1-ium trifluoroacetate]: the entries for the “% NAD+ Repletion” value with HEPG2 cells and in the test with Jurkat cells were 23.7% and 8.2%, respectively. The matching figures for `COC(=O)CCC(=O)OC[C@H]1O[C@@H]([n+]2cccc(C(N)=O)c2)[C@H](O)[C@@H]1O` [MP-43, 3-Carboxamide-1-((2R,3R,4S,5R)-3,4-dihydroxy-5-(((4-methoxy-4-oxobutanoyl)oxy)methyl)tetrahydrofuran-2-yl)pyridin-1-ium trifluoroacetate]: 31.1% and 12.9%.

Consider `O=C(c1cc(Cc2n[nH]c(=O)c3ccccc23)ccc1F)N1CCN(C(=O)C2CC2)CC1` [olaparib, reference compound], for which the “increase of NAD+ level” value with Jurkat cells (then olaparib 5 nM without NR for 3.5 hr) was 8%.
